From patent US8716316B2 (Hoffmann-La Roche Inc., priority 2009, dated 2014)

Target: T1, human mGlu5a receptor (Homo sapiens, UniProt P41594)
T1 construct: expressed in transfected cells
Assay: Intracellular Ca2+ mobilization assay
Type: cell-based
Conditions: for Emax: HEK293, read-out: Efficacy (%); for EC50: HEK-293 cells stably transfected with human mGlu5a receptor, pre-incubation 10-30 min with test compound, then L-glutamate at EC20 (typically around 80 μM), Fluo-4AM fluorescence, read-out: EC50 (nM) mGluR5 PAM
Experimental: A monoclonal HEK-293 cell line stably transfected with a cDNA encoding for the human mGlu5a receptor was generated; for the work with mGlu5 Positive Allosteric Modulators (PAMs), a cell line with low receptor expression levels and low constitutive receptor activity was selected to allow the differentiation of agonistic versus PAM activity. Cells were cultured according to standard protocols (Freshney, 2000) in Dulbecco's Modified Eagle Medium with high glucose supplemented with 1 mM glutamine, 10% (vol/vol) heat-inactivated bovine calf serum, Penicillin/Streptomycin, 50 μg/ml hygromycin and 15 μg/ml blasticidin (all cell culture reagents and antibiotics from Invitrogen, Basel, Switzerland).
About 24 hrs before an experiment, 5×10^4 cells/well were seeded in poly-D-lysine coated, black/clear-bottomed 96-well plates. The cells were loaded with 2.5 μM Fluo-4AM in loading buffer (1×HBSS, 20 mM HEPES) for 1 hr at 37° C. and washed five times with loading buffer. The cells were transferred into a Functional Drug Screening System 7000 (Hamamatsu, Paris, France), and 11 half logarithmic serial dilutions of test compound at 37° C. were added and the cells were incubated for 10-30 min. with on-line recording of fluorescence. Following this pre-incubation step, the agonist L-glutamate was added to the cells at a concentration corresponding to EC20 (typically around 80 μM) with on-line recording of fluorescence; in order to account for day-to-day variations in the responsiveness of cells, the EC20 of glutamate was determined immediately ahead of each experiment by recording of a full dose-response curve of glutamate.
Responses were measured as peak increase in fluorescence minus basal (i.e. fluorescence without addition of L-glutamate), normalized to the maximal stimulatory effect obtained with saturating concentrations of L-glutamate. Graphs were plotted with the % maximal stimulatory using XLfit, a curve fitting program that iteratively plots the data using Levenburg Marquardt algorithm. The single site competition analysis equation used was y=A+((B−A)/(1+((x/C)D))), where y is the % maximal stimulatory effect, A is the minimum y, B is the maximum y, C is the EC50, x is the log 10 of the concentration of the competing compound and D is the slope of the curve (the Hill Coefficient). From these curves the EC50 (concentration at which half maximal stimulation was achieved), the Hill coefficient as well as the maximal response in % of the maximal stimulatory effect obtained with saturating concentrations of L-glutamate were calculated.
A depression of the signal observed after addition of the EC20 concentration of L-glutamate was indicative of an inhibitory activity of the test compound.

[1] = maximal response in % of the maximal stimulatory effect obtained with saturating concentrations of L-glutamate, HEK-293 human mGlu5a cells, L-glutamate at EC20

T1 sequence (P41594 21-1180 isoform P41594-2 limits assumed): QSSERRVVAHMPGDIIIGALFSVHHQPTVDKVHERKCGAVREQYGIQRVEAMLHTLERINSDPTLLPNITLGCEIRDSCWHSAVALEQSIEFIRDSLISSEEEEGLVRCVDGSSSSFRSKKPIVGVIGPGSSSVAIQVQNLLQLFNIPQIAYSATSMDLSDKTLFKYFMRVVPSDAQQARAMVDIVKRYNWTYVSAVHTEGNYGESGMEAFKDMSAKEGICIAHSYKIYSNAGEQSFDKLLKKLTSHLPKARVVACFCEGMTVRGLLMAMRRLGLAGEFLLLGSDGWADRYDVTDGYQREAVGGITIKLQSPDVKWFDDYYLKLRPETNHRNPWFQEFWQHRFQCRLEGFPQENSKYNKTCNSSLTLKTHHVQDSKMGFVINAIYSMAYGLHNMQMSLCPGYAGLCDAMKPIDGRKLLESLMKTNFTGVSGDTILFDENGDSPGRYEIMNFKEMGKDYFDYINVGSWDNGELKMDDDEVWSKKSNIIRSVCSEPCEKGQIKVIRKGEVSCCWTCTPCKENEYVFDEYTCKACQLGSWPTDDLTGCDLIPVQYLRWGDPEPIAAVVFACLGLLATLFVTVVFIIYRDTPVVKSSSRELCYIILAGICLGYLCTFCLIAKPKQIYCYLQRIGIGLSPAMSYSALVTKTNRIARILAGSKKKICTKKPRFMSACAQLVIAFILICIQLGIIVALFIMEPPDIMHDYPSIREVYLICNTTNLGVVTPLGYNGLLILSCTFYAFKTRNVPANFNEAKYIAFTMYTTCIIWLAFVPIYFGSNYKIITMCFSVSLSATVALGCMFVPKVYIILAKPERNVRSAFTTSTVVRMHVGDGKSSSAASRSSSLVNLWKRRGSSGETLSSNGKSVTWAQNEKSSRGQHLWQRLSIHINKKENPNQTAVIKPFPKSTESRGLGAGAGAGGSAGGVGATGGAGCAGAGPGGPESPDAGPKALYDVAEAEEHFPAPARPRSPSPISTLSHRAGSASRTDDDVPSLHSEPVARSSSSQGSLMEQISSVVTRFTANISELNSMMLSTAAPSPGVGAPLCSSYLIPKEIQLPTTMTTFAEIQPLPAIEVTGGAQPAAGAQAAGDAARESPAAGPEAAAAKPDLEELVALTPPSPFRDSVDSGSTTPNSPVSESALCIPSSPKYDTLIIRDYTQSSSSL

Row | Compound | Emax [1] [%] | EC50 [nM] | Efficacy (%) [1] [%]
1 | COC1CCCC(OC)C1Nc1ncc(C#Cc2ccccc2)cn1 (mixture of isomers) [Example 5, (2,6-dimethoxy-cyclohexyl)-(5-phenylethynyl-pyrimidin-2-yl)-amine] | 105 | 345 | –
2 | OC1CCCCC1Nc1ncc(C#Cc2ccccc2)cn1 (mixture of isomers) [Example 10, 2-(5-phenylethynyl-pyrimidin-2-ylamino)-cyclohexanol] | 72 | 340 | –
3 | OC1CCC(Nc2ncc(C#Cc3ccccc3)cn2)C1 (mixture of isomers) [Example 11, 3-(5-phenylethynyl-pyrimidin-2-ylamino)-cyclopentanol] | 78 | 322 | –
4 | OC1CCCC1Nc1ncc(C#Cc2ccccc2)cn1 (mixture of isomers) [Example 12, 2-(5-phenylethynyl-pyrimidin-2-ylamino)-cyclopentanol] | 80 | 560 | –
5 | CC1(C)CC(Nc2ncc(C#Cc3ccccc3)cn2)CCO1 (racemic) [Example 3, rac-(2,2-Dimethyl-tetrahydro-pyran-4-yl)-(5-phenylethynyl-pyrimidin-2-yl)-amine] | 89 | 172 | –
6 | C(#Cc1cnc(N[C@H]2C[C@@H]3CC[C@H]2O3)nc1)c1ccccc1 (racemic) [Example 4, rac-7-Oxa-bicyclo[2.2.1]hept-2-yl-(5-phenylethynyl-pyrimidin-2-yl)-amine] | 113 | 195 | –
7 | CC1(C)CC(Nc2ncc(C#Cc3ccccc3)cn2)CCC1O (racemic) [Example 16, 2,2-Dimethyl-4-(5-phenylethynyl-pyrimidin-2-ylamino)-cyclohexanol] | 113 | 324 | –
8 | CC1(C)CC(Nc2ncc(C#Cc3ccccc3)cn2)CCC1O (single isomer, unassigned) [Example 17, (1S,4S or 1R,4R)-2,2-Dimethyl-4-(5-phenylethynyl-pyrimidin-2-ylamino)-cyclohexanol] | – | 94 | 93
9 | C(#Cc1cnc(NC2CCCC2)nc1)c1ccccc1 [Example 1, Cyclopentyl-(5-phenylethynyl-pyrimidin-2-yl)-amine] | 40 | 26 | –
10 | C(#Cc1cnc(NC2CCOCC2)nc1)c1ccccc1 [Example 2, (5-Phenylethynyl-pyrimidin-2-yl)-(tetrahydro-pyran-4-yl)-amine] | 46 | 65 | –
11 | OC[C@H]1CC[C@H](Nc2ncc(C#Cc3ccccc3)cn2)CC1 [Example 6, trans-[4-(5-Phenylethynyl-pyrimidin-2-ylamino)-cyclohexyl]-methanol] | 147 | 844 | –
12 | O[C@H]1CC[C@H](Nc2ncc(C#Cc3ccccc3)cn2)CC1 [Example 7, trans-4-(5-Phenylethynyl-pyrimidin-2-ylamino)-cyclohexanol] | 100 | 179 | –
13 | C(#Cc1ccc(NC2CCCC2)nc1)c1ccccc1 [Example 13, Cyclopentyl-(5-phenylethynyl-pyridin-2-yl)-amine] | 43 | 43 | –
14 | C(#Cc1ccc(NC2CCOCC2)nc1)c1ccccc1 [Example 14, (5-Phenylethynyl-pyridin-2-yl)-(tetrahydro-pyran-4-yl)-amine] | 59 | 110 | –
15 | C(#Cc1cnc(NC2CCCCC2)nc1)c1ccccc1 [Example 15, Cyclohexyl-(5-phenylethynyl-pyrimidin-2-yl)-amine] | 112 | 52 | –
16 | O[C@H]1CC[C@H](Nc2ncc(C#Cc3ccccc3)cc2F)CC1 [Example 18, trans-4-(3-Fluoro-5-phenylethynyl-pyridin-2-ylamino)-cyclohexanol] | 116 | 192 | –
17 | C[C@H]1CC[C@H](Nc2ncc(C#Cc3ccccc3)cn2)CC1 [Example 19, trans-(4-Methyl-cyclohexyl)-(5-phenylethynyl-pyrimidin-2-yl)-amine] | 55 | 75 | –
18 | C(#Cc1cnc(NCC2CCOCC2)nc1)c1ccccc1 [Example 20, (5-Phenylethynyl-pyrimidin-2-yl)-(tetrahydro-pyran-4-ylmethyl)-amine] | 80 | 206 | –

Next, values leading:

Row | Emax [1] [%] | EC50 [nM] | Efficacy (%) [1] [%] | Compound
19 | 121 | 168 | – | OC1CCC(Oc2ncc(C#Cc3ccccc3)cn2)CC1 (racemic) [Example 22, rac-4-(5-Phenylethynyl-pyrimidin-2-yloxy)-cyclohexanol]
20 | 90 | 200 | – | OC1CCC(Oc2ncc(C#Cc3ccccc3)cc2F)CC1 (racemic) [Example 27, rac-4-(3-Fluoro-5-phenylethynyl-pyridin-2-yloxy)-cyclohexanol]
21 | 120 | 93 | – | CC1CCN(Cc2ccc(C#Cc3ccccc3)cn2)C1=O (racemic) [Example 39, rac-3-Methyl-1-(5-phenylethynyl-pyridin-2-ylmethyl)-pyrrolidin-2-one]
22 | 59 | 94 | – | CC(c1ccc(C#Cc2ccccc2)cn1)N1CCOC1=O (racemic) [Example 41, rac-3-[1-(5-Phenylethynyl-pyridin-2-yl)-ethyl]-oxazolidin-2-one]
23 | 45 | 78 | – | CC1(CNc2ncc(C#Cc3ccccc3)cn2)COC1 [Example 21, (3-Methyl-oxetan-3-ylmethyl)-(5-phenylethynyl-pyrimidin-2-yl)-amine]
24 | 94 | 110 | – | O[C@H]1CC[C@H](Oc2ncc(C#Cc3ccccc3)cn2)CC1 [Example 23, trans-4-(5-Phenylethynyl-pyrimidin-2-yloxy)-cyclohexanol]
25 | 88 | 101 | – | CC1(COc2ncc(C#Cc3ccccc3)cn2)COC1 [Example 24, 2-(3-Methyl-oxetan-3-ylmethoxy)-5-phenylethynyl-pyrimidine]
26 | 133 | 291 | – | O[C@H]1C[C@H](COc2ncc(C#Cc3ccccc3)cn2)C1 [Example 25, trans-3-(5-Phenylethynyl-pyrimidin-2-yloxymethyl)-cyclobutanol]
27 | 117 | 99 | – | OC[C@H]1C[C@H](Oc2ncc(C#Cc3ccccc3)cn2)C1 [Example 26, trans-[3-(5-Phenylethynyl-pyrimidin-2-yloxy)-cyclobutyl]-methanol]
28 | 61 | 45 | – | C(#Cc1ccc(OC2CCCCC2)nc1)c1ccccc1 [Example 28, 2-Cyclohexyloxy-5-phenylethynyl-pyridine]
29 | 71 | 135 | – | CC1(COc2ncc(C#Cc3ccccc3)cc2F)COC1 [Example 29, 3-Fluoro-2-(3-methyl-oxetan-3-ylmethoxy)-5-phenylethynyl-pyridine]
30 | 121 | 83 | – | O=C1COCCN1Cc1ccc(C#Cc2ccccc2)cn1 [Example 30, 4-(5-Phenylethynyl-pyridin-2-ylmethyl)-morpholin-3-one]
31 | 122 | 56 | – | O=C1OCCN1Cc1ccc(C#Cc2ccccc2)cn1 [Example 31, 3-(5-Phenylethynyl-pyridin-2-ylmethyl)-oxazolidin-2-one]
32 | 145 | 268 | – | O=C1CCCCN1Cc1ccc(C#Cc2ccccc2)cn1 [Example 32, 1-(5-Phenylethynyl-pyridin-2-ylmethyl)-piperidin-2-one]
33 | 177 | 132 | – | CC1(C)CC(=O)N(Cc2ccc(C#Cc3ccccc3)cn2)C1 [Example 33, 4,4-Dimethyl-1-(5-phenylethynyl-pyridin-2-ylmethyl)-pyrrolidin-2-one]
34 | 119 | 174 | – | O=C1OCCCN1Cc1ccc(C#Cc2ccccc2)cn1 [Example 34, 3-(5-Phenylethynyl-pyridin-2-ylmethyl)-[1,3]oxazinan-2-one]
35 | 119 | 68 | – | CN1CCN(Cc2ccc(C#Cc3ccccc3)cn2)C1=O [Example 35, 1-Methyl-3-(5-phenylethynyl-pyridin-2-ylmethyl)-imidazolidin-2-one]
36 | 82 | 84 | – | CC1(C)CCC(=O)N1Cc1ccc(C#Cc2ccccc2)cn1 [Example 36, 5,5-Dimethyl-1-(5-phenylethynyl-pyridin-2-ylmethyl)-pyrrolidin-2-one]
